Read-outs that look alike come from different tables or passages of the source.
Tests used:
[1] = molecular target: T1, MvicOBP3 (Megoura viciae, UniProt A0A0S2E5N6); experiment: Competitive fluorescence binding assay (NPN displacement)
T1 sequence (A0A0S2E5N6 2-122): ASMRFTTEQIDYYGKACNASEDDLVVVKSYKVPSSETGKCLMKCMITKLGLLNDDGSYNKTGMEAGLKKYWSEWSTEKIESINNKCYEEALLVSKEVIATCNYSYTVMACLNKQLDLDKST
Method: (§1) Proteins were dissolved in 20 mM Tris-HCl buffer pH 7.4 and emission fluorescence spectra were recorded on a LS50 Luminescence Spectrometer (PerkinElmer, Buckinghamshire, UK) at 22 °C in a right angle configuration, with a 1 cm light path quartz cuvette and 5–10 nm slits for excitation and emission. […] The probe was excited at 337 nm and emission spectra were recorded between 380 and 450 nm. […] For determining binding constants, the intensity values corresponding to the maximum fluorescence emission were plotted against free ligand concentrations. We use GraphPad (http://www.graphpad.com/guides/prism/6/curve-fitting/index.htm?reg_one_site_competition_ki.htm) to determine the equilibrium dissociation constant Ki of ligand by measuring its competition for NPN and nonlinear regression curve fitting to the one site competitive binding model. This model fits the Ki of the ligand directly using the fixed concentration of NPN and the dissociation constant for NPN KNPN obtained from a direct fluorescence titration and nonlinear regression curve fitting to one site binding model Y = Bmax*X/(KNPN + X) + NS*X (X is the NPN concentration, Bmax is the maximum specific binding in the same units as Y, NS is the slope of nonspecific binding in Y units divided by X units). The corrected Ki is fitted directly rather than fitting an IC50 and modifying it with the Cheng and Prusoff equation[48]. The analysis assumes that the protein has one binding site and 100% active, and that the binding is reversible and at equilibrium. Tested compounds were EβF (Bedoukian Research, Danbury, CT, USA), β-pinene, (−)-α-pinene and (+)-limonene (Sigma, St. Louis, MO).

[2] = molecular target: T2, NribOBP3 (Nasonovia ribisnigri, UniProt A0A0M4AUH6); experiment: as above
T2 sequence (A0A0M4AUH6 1-119): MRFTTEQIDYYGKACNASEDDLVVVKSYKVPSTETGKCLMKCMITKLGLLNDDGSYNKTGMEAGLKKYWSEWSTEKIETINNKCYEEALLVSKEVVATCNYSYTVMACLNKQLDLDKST
Method: as §1

[3] = molecular target: T1, MvicOBP3; experiment: Direct fluorescence titration of the probe NPN; type: binding; details: recombinant MvicOBP3, 2 μM protein, 20 mM Tris-HCl pH 7.4, 22 °C; read-out: Kd of fluorescent probe NPN
Method: as §1, with “The analysis assumes that the protein has one binding site and 100% active, and that the binding is reversible and at equilibrium. Tested compounds were EβF (Bedoukian Research, Danbury, CT, USA), β-pinene, (−)-α-pinene and (+)-limonene (Sigma, St. Louis, MO).” left out

[4] = molecular target: T2, NribOBP3; experiment: Direct fluorescence titration of the probe NPN; type: binding; details: recombinant NribOBP3, 2 μM protein, 20 mM Tris-HCl pH 7.4, 22 °C; read-out: Kd of fluorescent probe NPN
Method: as §1, with “The analysis assumes that the protein has one binding site and 100% active, and that the binding is reversible and at equilibrium. Tested compounds were EβF (Bedoukian Research, Danbury, CT, USA), β-pinene, (−)-α-pinene and (+)-limonene (Sigma, St. Louis, MO).” left out

[5] = displacement of NPN (2 μM) from MvicOBP3/NPN complex, one site competitive binding model, read-out: Competitive inhibitor binding constant (Ki)
[6] = displacement of NPN (2 μM) from NribOBP3/NPN complex, one site competitive binding model, read-out: Competitive inhibitor binding constant (Ki)

Compound | Ki [1, 5] | Ki [2, 6] | also measured
C=C(C)C1CC=C(C)CC1 (single isomer, unassigned; (+)) [(+)-limonene] | 2500 nM |  | 
C=CC(=C)CC/C=C(\C)CCC=C(C)C [(E)-β-farnesene] | 100 nM | 5200 nM | 
CC1=CCC2CC1C2(C)C (stereo not drawn) [(−)-α-pinene] | 1800 nM | 20200 nM | 
c1ccc(Nc2cccc3ccccc23)cc1 [NPN, N-phenyl-1-naphthylamine] |  |  | Kd [3]: 1900 nM; Kd [4]: 9000 nM
C=C1CCC2CC1C2(C)C (stereo not drawn) [β-pinene] |  |  | Ki [1]: 2300 nM; Ki [2]: 30700 nM
